This assay deals with NiV G/F pseudotyped viruses. To be noted: 24 h.

*: point of attachment. X2 = CC(C)CCC[C@@H](C)[C@H]1CC[C@H]2[C@@H]3CC=C4C[C@@H](OC(=O)CCOCCOCCOCCOCCNC(=O)C*)CC[C@]4(C)[C@H]3CC[C@]12C; X1 = CC(C)CCC[C@@H](C)[C@H]1CC[C@H]2[C@@H]3CC=C4C[C@@H](OC(=O)C*)CC[C@]4(C)[C@H]3CC[C@]12C

Substance “Ac-VALDPIDISIVLNKAKSDLEESKEWIRRSNQKLDSIGSGSGC(X1)-NH2 (N-terminus and C-terminus assumed) [V-chol]” registered an IC50 of roughly 0.02 nM.

As to “Ac-VALDPIDISIVLNKAKSDLEESKEWIRRSNQKLDSIGSGSGC(X2)-NH2 (N-terminus and C-terminus assumed) [V-PEG4-chol]”, the half-inhibitory concentration (IC50) was roughly 0.02 nM.

Source of the values: publication PMC2965769 (PLoS Pathogens, 2010).
